The text below walks through data of patent EP0314528B1, “Article for the controlled release and delivery of substances to animal tissues” (HERCON LABORATORIES CORPORATION, priority 1987, dated 1989).

For one assay, the system named is guinea pig skin. Conditions: compared with indomethacin; cited from earlier work.
For the next assay, the system named is cyclooxygenase. Conditions: cited from earlier work.
The subject of the next assay is prostaglandin E2. Conditions: cited from earlier work.
A further assay has as its system leukotriene C4. Conditions: cited from earlier work.
For a further assay, the system named is rat footpad. Conditions: applied topically to rat footpad; cited from earlier work.
Assay [1] has as its system human subject. The experiment in a line: Contact irritant dermatitis to RO 22-1327 patches with incorporated fluocinonide. Format: in vivo. Conditions: 1.0% fluocinonide incorporated into the RO 22-1327 patch. From the text: (§1) The Grading System for this example is as follows: +/- faint, or spotty, pink color within test site; 1 uniform pink color covering all of test site; 2 uniform pink to red color covering all of test site; 3 uniform bright red color covering all of test site; 4 uniform bright red color covering all of test side with edema, blisters, or weeping.
Objective - To block the contact irritant dermatitis observed following application of RO 22-1327 patches to the skin through the incorporation of fluocinonide in the patch. Materials - One formulation of the antihypertensive drug RO 22-1327 was used, in which either 0%, 0.1%. 1.0% or 5% fluocinonide was incorporated. Methods - Four patches containing RO 22-1327 and fluocinonide at either 0%, 0.1%, 1.0%. or 5.0% were applied to the upper arms (two per arm) of a single human subject not previously exposed to this drug. The patches were removed at 8 hours and the sites observed for signs of dermatitis immediately and 16 hours later. In a second test. one RO 22-1327 patch containing 1.0% fluocinonide was applied to the upper arm of the same human subject as above and removed after 24 hours. The site was examined immediately for signs of dermatitis.

For assay [2], the system named is human subject previously sensitized to trifluoperazine. The assay can be described thus: Contact allergic dermatitis to trifluoperazine patches with incorporated fluocinonide, sensitized subject. Format: in vivo. Conditions: 2% fluocinonide incorporated in the trifluoperazine patch.
Text: as §1
Objective - To block the contact allergic dermatitis which occurs following application of trifluoperazine patches to the skin through the incorporation of fluocinonide in the patches. Materials - One formulation of the tranquilizer drug trifluoperazine was used in which either 0% or 2% fluocinonide was incorporated. Thus, the following formulations were prepared: […]
Methods - Two patches containing trifluoperazine and either 0% or 2% fluocinonide were applied to the upper arm of a single human subject previously sensitized to trifluoperazine. The patches were removed after two days and the sites read immediately and 24 and 48 hours later as well. […]

The subject of assay [3] is human subject previously sensitized to clonidine. The experiment in a line: Contact allergic dermatitis to clonidine patches with incorporated fluocinonide, sensitized subject. Format: in vivo. The conditions noted are these: 2% fluocinonide incorporated in the clonidine patch.
Text: as §1
Objective - To block the contact allergic dermatitis which occurs following application of clonidine patches to the skin through incorporation of fluocinonide in the patches. Materials - One formulation of the anti-hypertensive drug clonidine was used in which either 0% or 2% fluocinonide was incorporated. A second formulation containing no clonidine was also tested. Thus, the following formulations were prepared: […]
Methods - Two patches containing clonidine and either 0% or 2% fluocinonide were applied to the upper back of a single human subject previously sensitized to clonidine. A third patch containing no clonidine and no fluocinonide was also applied as a placebo. The patches were removed after 7 days and the sites read immediately and on the 8th day as well. […]

Assay [4] has as its system human subject previously sensitized to fluphenazine. The experiment in a line: Contact allergic dermatitis to fluphenazine patches with incorporated fluocinonide, sensitized subject. Type of assay: in vivo. Conditions: 1% or 5% fluocinonide incorporated in the fluphenazine patch.
Text: as §1
Objective - To block contact dermatitis observed following application of fluphenazine patches to the skin through incorporation of fluocinonide in the patch. Materials - One formulation of the anti-psychotic drug fluphenazine was used in which either 0%, 1% or 5% fluocononide was incorporated. Thus, the following formulations were prepared: […]
Methods - Three patches containing fluphenazine and fluocinonide at either 0%, 1% or 5% of fluocinonide were applied to the upper arm of a single human subject previously sensitized to fluphenazine. The patches were removed at 48 hours and the sites observed for signs of allergic dermatitis immediately and at 72 and 96 hours. […]

Assay [5] deals with human subject. The experiment in a line: Contact irritant dermatitis to guanfacine patches with incorporated hydrocortisone. Type of assay: in vivo. Conditions: 23 hour and 1 week observation.
Text: as §1
Objective - To block the contact irritant dermatitis observed following application of guanfacine patches to the skin through the incorporation of hydrocortisone in the patch. Materials - Two formulations of the antihypertensive drug guanfacine were used in this study. Into each was incorporated hydrocortisone at either 0.5% or 2.0%. Control patches containing no hydrocortisone were also used. Thus, the following formulations were prepared: […]
(To make the 0.5% hydrocortisone formulations, 20 mg hydrocortisone was added to 4 grams of the above formulations. To make 2.0% hydrocortisone formulations, 80 mg of hydrocortisone was added to 4 grams of the above two formulations). Methods - Three patches of each of the two guanfacine formulations, containing either 0%, 0.5% or 2.0% hydrocortisone, were applied to the upper arm of a single human subject not previously exposed to this drug. The patches were removed after 23 hours and the sites observed for signs of dermatitis. One week later, the sites were again observed.

Take `COc1cc(-c2nc3ncccc3o2)cc(C(C)(C)C)c1` [2-(3-(1,1-dimethylethyl)5-methoxyphenyl-oxazolo(4,5-b)pyridine]: the “inhibiting ultra-violet light-induced erythema” value in the assay with guinea pig skin is “as potent as indomethacin”. Also, the cyclooxygenase inhibition result with cyclooxygenase is “inhibitor”. Moreover, the “inhibition of prostaglandin E2 synthesis” value with prostaglandin E2 is “inhibitor”. Besides, the “inhibition of leukotriene C4 synthesis” value with leukotriene C4 is recorded as “not”. Besides, the analgesic effect entry with rat footpad is “effective analgesic”.

For `CC(=O)OCC(=O)[C@@]12OC(C)(C)O[C@@H]1C[C@H]1[C@@H]3C[C@H](F)C4=CC(=O)C=C[C@]4(C)[C@@]3(F)[C@@H](O)C[C@@]12C` [fluocinonide], the “irritant dermatitis associated with the use of RO 22-1327” value with human subject [1] is “significant reduction”. The “magnitude of the allergic reaction (erythema and blistering) caused by trifluoperazine” value in assay [2] is on record as “significantly reduced”. The “allergic reaction (erythema and blistering) caused by clonidine” value in [3] is listed as “significantly reduced”. Also, in assay [4], the “allergic reaction (erythema and blistering) caused by fluphenazine” value was “almost completely blocked”.

For `C[C@]12CCC(=O)C=C1CC[C@@H]1[C@@H]2[C@@H](O)C[C@@]2(C)[C@H]1CC[C@]2(O)C(=O)CO` [hydrocortisone], the “adverse reactions (irritant dermatitis)” value with human subject [5] (0.5% hydrocortisone guanfacine patches) was “variable”; in the assay on human subject [5] (2.0% hydrocortisone guanfacine patches) it was “No adverse reactions”.
